Experimental data published in ChEMBL document CHEMBL1151390, “Microbial Transformations of Natural Antitumor Agents. 20. Glucosylation of Viridi-catumtoxin” (J Nat Prod, 1982).
The source made the active and inactive calls. The calls are words filed in the database; no cut-off is given here.

Test system: P388
Assay: Antitumor activity against mouse P388 cells
Assay type: functional, cell-based

SMILES: COc1cc(O)c2c(O[C@@H]3O[C@H](CO)[C@@H](O)[C@H](O)[C@H]3O)c3c(c4c2c1[C@@]1(C4)C(C)=CCCC1(C)C)[C@H](O)[C@@]1(O)CC(O)=C(C(N)=O)C(=O)[C@@]1(O)C3=O
- Activity: inactive
